Experimental data from article PMC12566046, “Arylpiperazinyl-Benzocycloheptapyrrole-Carboxamides Endowed with Dual Anticancer and Antiviral Activities” (Molecules, 2025).
Where two headings read alike, the source gives them in different places.

How the values were obtained:
[1] = test system: ZIKV, strain Brazil/2016/INMI1; experiment: ZIKV viral yield reduction assay on Huh-7 cells; format: cell-based, Zika virus; conditions: Zika virus
Experimental: We developed a protocol to screen the potential antiviral activity of compounds 1–20 against ZIKV (strain Brazil) on Huh-7 cells, against an H1N1 IAV strain (PR/8/1934) on MDCK cells, and against SARS-CoV-2 (strain Milano) on Vero-TMPRSS. Each compound was tested in duplicate at concentrations of 50 μM, 5 μM, and 0.5 μM. Treatment was applied immediately after infection, and at 24–48 h post-infection, supernatants were collected to assess viral yield, determined as PFU/mL for ZIKV and SARS-CoV-2 or as TCID50/mL for IAV. The test allowed us to evaluate both the antiviral action and the cytotoxicity of each compound, comparing them with reference compounds, such as sofosbuvir for ZIKV and EIDD-1931 for IAV and SARS-CoV-2 (Supplementary Materials, Figures S87–S89).
Viral yield reduction assays for ZIKV and SARS-CoV-2 were performed as previously described by Plicanti. Briefly, 1 × 10^4 Huh-7 cells/well and 1.2 × 10^4 VERO TMPRSS cells/well were infected with ZIKV (MOI 1) or SARS-CoV-2 (MOI 0.05) in a primary 96-well plate for 2 h at 37 °C, 5% CO2. […] Supernatants were collected after 48 h (Huh-7) or 24 h (VERO TMPRSS), diluted 3-fold, and added onto VERO E6 or VERO TMPRSS monolayers, respectively. After 2 h at 37 °C, the inoculum was replaced with 0.75% carboxymethyl cellulose (Merck®, Darmstadt, Germany) in DMEM 2% FBS. After 48–72 h, cells were then fixed with 4% buffered formalin solution (Merck®, Darmstadt, Germany) and stained with 1% crystal violet (Merck®, Darmstadt, Germany). Titres and percentage of inhibition were calculated as follows:
PFU/mL = number of plaques*3^n/vol infection, where n is the dilution where plaques were counted:% inhibition = 100 × (1 − Titre-compound/Titre-untreated control) where Titre-compound and Titre-untreated control are the titres (PFU/mL) obtained on cells treated with compound or DMSO, respectively.
SI was obtained by dividing CC50 by EC50 for each drug/virus/cell line. Compounds with SI values ≥ 10 were active in vitro.

[2] = in vitro; conditions: African green monkey
[3] = test system: SARS-CoV-2 VR PV10734 (strain Milano); experiment: microbe, parasite or virus in culture; format: cell-based
[4] = in vitro; conditions: dog
[5] = test system: MCF-7 (breast cancer cell line); experiment: NCI-60 single-dose assay; format: cell-based, human; conditions: Homo sapiens, MCF7, read-out: growth inhibition (GI%) and cytotoxicity (negative values), MCF-7, 10^−5 M
From the text: (§1) We first evaluated the cytotoxic activity of tricyclic-pyrrole carboxamides 1–20 using the NCI-60 cell line panel, representing nine different human cancers: leukemia, melanoma, and cancers of the lung, colon, central nervous system (CNS), ovary, kidney, prostate, and breast (the one-dose graph for compounds 1–20 is reported in Supplementary Materials, Figures S43–S62). Compounds 1, 5, 10, 11, 17, and 20 satisfied pre-determined threshold inhibition criteria in a minimum number of cell lines; therefore, they were also tested in the full five-dose assay (Figures S63–S68 in the Supplementary Materials).

[6] = Cytotoxicity on uninfected Huh-7 cells (WST-8, crystal violet); conditions: human, uninfected Huh-7 cells
Experimental: The toxicity of the compounds at the same concentration was tested on the same cells in parallel.
Cytotoxic effects were evaluated on uninfected cells using the WST-8 assay (Orangu, Cell Guidance Systems, Cambridge, UK) and the crystal violet assay [23]. […] Huh-7, MDCK, and Vero TMPRSS cells were seeded at 1 × 10^4, 1.5 × 10^4, and 1.2 × 10^4 cells/well, respectively, and incubated for 48 h (Huh-7 and MDCK) or 24 h (VERO TMPRSS), following conditions matching those of the corresponding antiviral assays in terms of timing and culture medium. At the end of incubation, the medium was replaced with a 10% WST-8 solution in DMEM and incubated for 1 h at 37 °C. Optical density (OD) was then measured at 450 nm using a Varioskan LUX plate reader (ThermoFisher Scientific, Milano, Italy). Subsequently, cells were fixed with 4% buffered formalin solution (Merck®, Darmstadt, Germany), stained with 1% crystal violet (Merck®, Darmstadt, Germany), and the dye was solubilized in 30% acetic acid for 30 min under shaking. OD was then measured at 595 nm as an additional readout of cell viability. The percentage of viability at each concentration was calculated using the formula:% viability = 100 × (ODcompound/ODuntreated control) where ODcompound and ODuntreated are the OD of the cells treated with compound or DMSO, respectively.
The CC50 value was determined by nonlinear regression analysis on GraphPad Prism 7 (San Diego, CA, USA).

[7] = test system: K-562 (leukemia cell line); experiment: NCI-60 single-dose assay; format: cell-based; conditions: Homo sapiens, K562, read-out: growth inhibition (GI%) and cytotoxicity (negative values)
From the text: as §1

[8] = test system: SK-MEL-5 (melanoma cell line); experiment: NCI-60 single-dose assay; format: cell-based, human; conditions: Homo sapiens, SK-MEL-5, read-out: growth inhibition (GI%) and cytotoxicity (negative values)
From the text: as §1

[9] = test system: M14 (melanoma cell line); experiment: NCI-60 single-dose assay; format: cell-based, human; conditions: Homo sapiens, M14, read-out: growth inhibition (GI%) and cytotoxicity (negative values)
From the text: as §1

[10] = test system: HCC-2998 (colon cancer cell line); experiment: NCI-60 single-dose assay; format: cell-based, human; conditions: Homo sapiens, HCC 2998, read-out: growth inhibition (GI%) and cytotoxicity (negative values)
From the text: as §1

[11] = test system: NCI-H460 (non-small cell lung cancer cell line); experiment: NCI-60 single-dose assay; format: cell-based, human; conditions: Homo sapiens, NCI-H460, read-out: growth inhibition (GI%) and cytotoxicity (negative values)
From the text: as §1

[12] = test system: MOLT-4 (leukemia cell line); experiment: NCI-60 single-dose assay; format: cell-based, human; conditions: Homo sapiens, MOLT-4, read-out: growth inhibition (GI%) and cytotoxicity (negative values)
From the text: as §1

[13] = test system: RPMI-8226 (leukemia cell line); experiment: NCI-60 single-dose assay; format: cell-based, human; conditions: Homo sapiens, RPMI-8226, read-out: growth inhibition (GI%) and cytotoxicity (negative values)
From the text: as §1

[14] = test system: KM12 (colon cancer cell line); experiment: NCI-60 single-dose assay; format: cell-based, human; conditions: Homo sapiens, KM12, read-out: growth inhibition (GI%) and cytotoxicity (negative values)
From the text: as §1

[15] = test system: HT29 (colon cancer cell line); experiment: NCI-60 single-dose assay; format: cell-based, human; conditions: Homo sapiens, HT-29, read-out: growth inhibition (GI%) and cytotoxicity (negative values)
From the text: as §1

[16] = test system: HCT-116 (colon cancer cell line); experiment: NCI-60 single-dose assay; format: cell-based, human; conditions: Homo sapiens, HCT-116, read-out: growth inhibition (GI%) and cytotoxicity (negative values)
From the text: as §1

[17] = test system: HL-60(TB) (leukemia cell line); experiment: NCI-60 single-dose assay; format: cell-based, human; conditions: Homo sapiens, HL-60, read-out: growth inhibition (GI%) and cytotoxicity (negative values)
From the text: as §1

[18] = test system: SR (leukemia cell line); experiment: NCI-60 single-dose assay; format: cell-based, human; conditions: Homo sapiens, read-out: growth inhibition (GI%) and cytotoxicity (negative values)
From the text: as §1

[19] = test system: HCT-15 (colon cancer cell line); experiment: NCI-60 single-dose assay; format: cell-based, human; conditions: Homo sapiens, HCT-15, read-out: growth inhibition (GI%) and cytotoxicity (negative values)
From the text: as §1

[20] = test system: COLO 205 (colon cancer cell line); experiment: NCI-60 single-dose assay; format: cell-based, human; conditions: Homo sapiens, COLO 205, read-out: growth inhibition (GI%) and cytotoxicity (negative values)
From the text: as §1

[21] = test system: SW-620 (colon cancer cell line); experiment: NCI-60 single-dose assay; format: cell-based, human; conditions: Homo sapiens, SW-620, read-out: growth inhibition (GI%) and cytotoxicity (negative values)
From the text: as §1

[22] = test system: CCRF-CEM (leukemia cell line); experiment: NCI-60 single-dose assay; format: cell-based, human; conditions: Homo sapiens, read-out: growth inhibition (GI%) and cytotoxicity (negative values)
From the text: as §1

[23] = test system: Vero TMPRSS cells
[24] = test system: IAV strain A/PR/8/34 (H1N1)
[25] = test system: MDCK cells; experiment: Cytotoxicity on uninfected MDCK cells (WST-8, crystal violet)
[26] = test system: NCI-60 cell line panel; experiment: NCI-60 single-dose assay, whole panel; format: cell-based, human; conditions: summary over the panel
From the text: as §1

[27] = Huh-7, read-out: ZIKV/Huh‐7 EC50
[28] = Severe acute respiratory syndrome coronavirus 2, preliminary screening (50, 5, 0.5 μM), Vero TMPRSS, read-out: SARS‐CoV‐2/Vero TMPRSS EC50
[29] = preliminary screening (50, 5, 0.5 μM), Huh-7, read-out: ZIKV/Huh‐7 EC50

Structure (SMILES)	EC50 [1, 27] [µM]	CC50 at 24 h [2] [µM]	EC50 [3, 28] [µM]	CC50 [4] [µM]	CC50 at 48 h [6] [µM]	inhibition at 10 µM [7] [%]	EC50 [1, 29] [µM]	inhibition at 10 µM [8] [%]	inhibition at 10 µM [16] [%]	growth inhibition (GI%) reached against cancer cell lines of the NCI-60 panel [26] [%]	further results
O=C(NCCN1CCN(c2ccccc2Cl)CC1)c1[nH]c2c(c1Cl)CCCc1ccccc1-2 [Compound 4]	4.39	57.9	42.5	14.7	59.9	–	–	–	–	–	inhibition at 10 µM [5]: 60%
N#Cc1ccccc1N1CCN(CCNC(=O)c2[nH]c3c(c2Cl)CCCc2ccccc2-3)CC1 [Compound 8, 3-Chloro-N-(2-(4-(2-cyanophenyl)piperazin-1-yl)ethyl)-1,4,5,6-tetrahydrobenzo[6,7]cyclohepta[1,2-b]pyrrole-2-carboxamide]	–	67.5	58.4	119	50.6	62.4	2.87	75.3	–	–	–
CCOc1ccccc1N1CCN(CCNC(=O)c2[nH]c3c(c2Cl)CCCc2ccccc2-3)CC1 [Compound 7]	3.82	38.5	37.3	5.6	50.7	82.6	–	77.7	76.1	–	inhibition at 10 µM [9]: 88.6%; inhibition at 10 µM [10]: < 60%; inhibition at 10 µM [11]: 60.8%; inhibition at 10 µM [12]: 66.5%; inhibition at 10 µM [13]: 63.4%; inhibition at 10 µM [14]: < 60%; inhibition at 10 µM [15]: 72.7%; inhibition at 10 µM [17]: < 60%; inhibition at 10 µM [18]: 70%; inhibition at 10 µM [19]: 82.1%; inhibition at 10 µM [20]: 88.8%; inhibition at 10 µM [21]: < 60%; inhibition at 10 µM [22]: < 60%
O=c1nc(NO)ccn1[C@@H]1O[C@H](CO)[C@@H](O)[C@H]1O [EIDD-1931, reference compound]	–	–	–	–	–	–	–	–	–	–	CC50 ([23]; VERO TMPRSS cells, 24 h, full dose-response): 22.2 µM; CC50 ([23]; read-out: SARS‐CoV‐2/Vero TMPRSS CC50, preliminary screening (50, 5, 0.5 μM), Vero TMPRSS): 13.4 µM; EC50 ([24]; IAV, MDCK cells, 48 h, full dose-response): 390 nM; IAV/MDCK SI ([24]; preliminary screening): < 24.15; EC50 ([24]; read-out: IAV/MDCK EC50, preliminary screening (50, 5, 0.5 μM), MDCK): 2070 nM; EC50 ([3]; SARS-CoV-2, VERO TMPRSS cells, 24 h, full dose-response, read-out: EC50): 0.05 µM; EC50 ([3]; preliminary screening (50, 5, 0.5 μM), Vero TMPRSS, read-out: SARS‐CoV‐2/Vero TMPRSS EC50): 0.11 µM; CC50 ([25]; MDCK cells, 48 h, full dose-response): 138 µM; CC50 ([25]; read-out: IAV/MDCK CC50, preliminary screening (50, 5, 0.5 μM), MDCK): < 50 µM
O=C(NCCN1CCN(c2ccccc2)CC1)c1[nH]c2c(c1Cl)CCCc1ccccc1-2 [Compound 2, 3-Chloro-N-(2-(4-phenylpiperazin-1-yl)ethyl)-1,4,5,6-tetrahydrobenzo[6,7]cyclohepta[1,2-b]pyrrole-2-carboxamide]	–	–	–	–	< 50	–	43.9	–	–	< 60	–
COc1cccc(N2CCN(CCNC(=O)c3[nH]c4c(c3Cl)CCCc3ccccc3-4)CC2)c1 [Compound 6]	3.24	121	–	66	53.5	–	–	–	64	–	–
O=C(NCCN1CCN(c2ccc(Cl)c(Cl)c2)CC1)c1[nH]c2c(c1Cl)CCCc1ccccc1-2 [Compound 9]	–	67.7	–	–	65.5	–	3.24	–	–	< 60	–
COc1cccc(N2CCN(CCNC(=O)c3c(Cl)[nH]c4c3CCCc3ccccc3-4)CC2)c1 [Compound 16]	–	50.2	–	42.9	–	77.6	–	88.6	< 60	–	inhibition at 10 µM [10]: < 60%; inhibition at 10 µM [12]: < 60%; inhibition at 10 µM [13]: 60%; inhibition at 10 µM [14]: < 60%; inhibition at 10 µM [15]: 74.9%; inhibition at 10 µM [17]: < 60%; inhibition at 10 µM [18]: 73.6%; inhibition at 10 µM [19]: < 60%; inhibition at 10 µM [20]: < 60%; inhibition at 10 µM [5]: 73%; inhibition at 10 µM [21]: < 60%; inhibition at 10 µM [22]: < 60%
O=C(NCCN1CCN(c2ccc(Cl)cc2)CC1)c1[nH]c2c(c1Cl)CCCc1ccccc1-2 [Compound 3]	–	143	–	–	62.6	–	3.24	–	–	< 60	–
